Laboratory results as given in PubChem BioAssay (NCI).
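At the GI50, growth is halved. TGI marks complete inhibition of growth.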

Assays:
Assay in all cases: growth of human tumour cells (NCI), 384-well format
[1] = test system: HT29 colon
[2] = test system: U251 glioblastoma
[3] = test system: 786-0 renal
[4] = test system: MOLT-4 leukemia
[5] = test system: CCRF-CEM leukemia
[6] = test system: NCI/ADR-RES ovarian
[7] = test system: KM12 colon
[8] = test system: COLO 205 colon
[9] = test system: A549 NSCLC
[10] = test system: LOX IMVI melanoma
[11] = test system: SW-620 colon
[12] = test system: NCI-H522 lung
[13] = test system: OVCAR-5 ovarian
[14] = test system: TK-10 renal
[15] = test system: NCI-H460 NSCLC
[16] = test system: SK-OV-3 ovarian
[17] = test system: MDA-MB-231 breast
[18] = test system: ACHN renal
[19] = test system: SK-MEL-5 melanoma
[20] = test system: HOP-92 NSCLC
[21] = test system: OVCAR-8 ovarian
[22] = test system: MDA-MB-435 melanoma
[23] = test system: BT-549 breast
[24] = test system: SF-539 CNS
[25] = test system: NCI-H322M lung
[26] = test system: UO-31 renal
[27] = test system: IGROV1 ovarian
[28] = test system: SNB-75 CNS
[29] = test system: OVCAR-3 ovarian
[30] = test system: SF-295 CNS

**Q.** For Cc1nn(C)c(COc2ccc(N3CCN(S(=O)(=O)N(C)C)CC3)cc2)c1-c1cccc2c(CCCOc3cccc4ccccc34)c(C(=O)O)n(CCN3CCOCC3)c12, which GI50 [1] is on record?
**A.** 2720 nM

**Q.** And the TGI [1]?
**A.** 7.13 µM

**Q.** And the GI50 [2]?
**A.** 3.67 µM

**Q.** What about the TGI [2] of the same compound?
**A.** 11.8 µM

**Q.** What about the GI50 [3] of the same compound?
**A.** 5.67 µM

**Q.** What about the TGI [3] of the same compound?
**A.** 13.8 µM

**Q.** What about the GI50 [4] of the same compound?
**A.** 2020 nM

**Q.** What about the TGI [4] of the same compound?
**A.** 3.66 µM

**Q.** And the GI50 [5]?
**A.** 2410 nM

**Q.** And the TGI [5]?
**A.** 4.78 µM

**Q.** And the GI50 [6]?
**A.** 32.8 µM

**Q.** And the TGI [6]?
**A.** > 92.7 µM

**Q.** And the GI50 [7]?
**A.** 4.51 µM

**Q.** What about the TGI [7] of the same compound?
**A.** 12.2 µM

**Q.** And the GI50 [8]?
**A.** 4.33 µM

**Q.** What about the TGI [8] of the same compound?
**A.** 13.3 µM

**Q.** What about the GI50 [9] of the same compound?
**A.** 9.44 µM

**Q.** And the TGI [9]?
**A.** 23.3 µM

**Q.** What about the GI50 [10] of the same compound?
**A.** 5.6 µM

**Q.** And the TGI [10]?
**A.** 13.5 µM

**Q.** What about the GI50 [11] of the same compound?
**A.** 3.46 µM

**Q.** What about the TGI [11] of the same compound?
**A.** 10.6 µM

**Q.** What about the GI50 [12] of the same compound?
**A.** 2640 nM

**Q.** What about the TGI [12] of the same compound?
**A.** 5.42 µM

**Q.** And the GI50 [13]?
**A.** 5.75 µM

**Q.** And the TGI [13]?
**A.** 16.2 µM

**Q.** And the GI50 [14]?
**A.** 4.94 µM

**Q.** And the TGI [14]?
**A.** 14.1 µM

**Q.** And the GI50 [15]?
**A.** 5.22 µM

**Q.** What about the TGI [15] of the same compound?
**A.** 14.9 µM

**Q.** And the GI50 [16]?
**A.** 5.61 µM

**Q.** And the TGI [16]?
**A.** 13.6 µM

**Q.** What about the GI50 [17] of the same compound?
**A.** 4.49 µM

**Q.** What about the TGI [17] of the same compound?
**A.** 13.3 µM

**Q.** And the GI50 [18]?
**A.** 6.55 µM

**Q.** What about the TGI [18] of the same compound?
**A.** 17.6 µM

**Q.** And the GI50 [19]?
**A.** 2920 nM

**Q.** What about the TGI [19] of the same compound?
**A.** 7.26 µM

**Q.** What about the GI50 [20] of the same compound?
**A.** 3.32 µM

**Q.** What about the TGI [20] of the same compound?
**A.** 8.76 µM

**Q.** What about the GI50 [21] of the same compound?
**A.** 3.73 µM

**Q.** And the TGI [21]?
**A.** 12.9 µM

**Q.** And the GI50 [22]?
**A.** 4.32 µM

**Q.** What about the TGI [22] of the same compound?
**A.** 14.6 µM

**Q.** What about the GI50 [23] of the same compound?
**A.** 3.49 µM

**Q.** And the TGI [23]?
**A.** 8.64 µM

**Q.** What about the GI50 [24] of the same compound?
**A.** 3.57 µM

**Q.** And the TGI [24]?
**A.** 9.98 µM

**Q.** And the GI50 [25]?
**A.** 6.07 µM

**Q.** And the TGI [25]?
**A.** 14.6 µM

**Q.** What about the GI50 [26] of the same compound?
**A.** 9.73 µM

**Q.** What about the TGI [26] of the same compound?
**A.** 21.5 µM

**Q.** What about the GI50 [27] of the same compound?
**A.** 3.11 µM

**Q.** What about the TGI [27] of the same compound?
**A.** 8.58 µM

**Q.** What about the GI50 [28] of the same compound?
**A.** 3.52 µM

**Q.** What about the TGI [28] of the same compound?
**A.** 8.36 µM

**Q.** What about the GI50 [29] of the same compound?
**A.** 2320 nM

**Q.** What about the TGI [29] of the same compound?
**A.** 5.26 µM

**Q.** What about the GI50 [30] of the same compound?
**A.** 2940 nM
